ChEMBL document CHEMBL3045159, “Computational evaluation and experimental in vitro antibacterial, antifungal and antiviral activity of bis-Schiff bases of isatin and its derivatives” (Med Chem Res, 2013)
≈ marks a conversion by molar mass, not a printed value.

What was measured:
Saccharomyces cerevisiae = test: Antifungal activity against Saccharomyces cerevisiae ATCC 28383; type: functional
Staphylococcus aureus = test: Antibacterial activity against Staphylococcus aureus CIP 4.83; type: functional
[1] = system: Respiratory syncytial virus; test: Antiviral activity against Respiratory syncytial virus infected HeLa cells; type: functional; settings: human respiratory syncytial virus
Coxsackievirus B4 [2] = test: Antiviral activity against Human coxsackievirus B4 infected HeLa cells; type: functional; settings: Enterovirus B
[3] = system: Vesicular stomatitis virus; test: Antiviral activity against Vesicular stomatitis virus infected HeLa; type: functional
Coxsackievirus B4 [4] = test: Antiviral activity against Human coxsackievirus B4 infected Vero cells; type: functional; settings: Enterovirus B
Punta Toro virus = test: Antiviral activity against Punta Toro virus infected Vero cells; type: functional
Sindbis virus = test: Antiviral activity against Sindbis virus infected Vero cells; type: functional
Escherichia coli = test: Antibacterial activity against Escherichia coli CIP 54127; type: functional
Candida albicans = test: Antifungal activity against Candida albicans CIP 1180-79; type: functional
[5] = system: Mammalian orthoreovirus 1; test: Antiviral activity against Mammalian orthoreovirus 1 infected Vero cells; type: functional
Human respirovirus 3 = test: Antiviral activity against Human parainfluenza virus 3 infected Vero cells; type: functional
Human alphaherpesvirus 1 [6] = test: Antiviral activity against thymidine kinase-deficient, acylcovir-resistant Human herpesvirus 1 strain KOS infected in HEL cells; type: functional; settings: Human alphaherpesvirus 1, KOS
[7] = system: Vesicular stomatitis virus; test: Antiviral activity against Vesicular stomatitis virus infected HEL cells; type: functional
Vaccinia virus = test: Antiviral activity against Vaccinia virus infected HEL cells; type: functional; settings: Orthopoxvirus vaccinia
Human alphaherpesvirus 2 = test: Antiviral activity against Human herpesvirus 2 strain G infected HEL cells; type: functional; settings: Human alphaherpesvirus 2, strain G
Human alphaherpesvirus 1 [8] = test: Antiviral activity against Human herpesvirus 1 strain KOS infected in HEL cells; type: functional; settings: Human alphaherpesvirus 1, KOS
[9] = Cytotoxicity against Homo sapiens (human) HeLa cells; type: cell-based
[10] = Cytotoxicity against Homo sapiens (human) HEL cells; type: cell-based
[11] = Cytotoxicity against Chlorocebus aethiops (African green monkey) Vero cells; type: cell-based; settings: chlorocebus sabaeus

| SMILES | MIC (Saccharomyces cerevisiae) [µg/mL] | MIC (Staphylococcus aureus) [µg/mL] | MIC [1] [µg/mL] | MIC (Coxsackievirus B4 [2]) [µg/mL] | MIC [3] [µg/mL] | MIC (Coxsackievirus B4 [4]) [µg/mL] | MIC (Punta Toro virus) [µg/mL] | MIC (Sindbis virus) [µg/mL] | MIC (Escherichia coli) [µg/mL] | MIC (Candida albicans) [µg/mL] | MIC [5] [µg/mL] | MIC (Human respirovirus 3) [µg/mL] | MIC (Human alphaherpesvirus 1 [6]) [µg/mL] | MIC [7] [µg/mL] | MIC (Vaccinia virus) [µg/mL] | MIC (Human alphaherpesvirus 2) [µg/mL] | MIC (Human alphaherpesvirus 1 [8]) [µg/mL] | MCC [9] [µg/mL] | MCC [10] [µg/mL] | MCC [11] [µg/mL] |
| --- | --- | --- | --- | --- | --- | --- | --- | --- | --- | --- | --- | --- | --- | --- | --- | --- | --- | --- | --- | --- |
| O=C1/C(=N/c2cccc(Cc3cccc(/N=C4/C(=O)N(Cc5ccccc5)c5ccccc54)c3)c2)c2ccccc2N1Cc1ccccc1 | < 50 | < 50 | > 40 | > 40 | > 40 | > 40 | > 40 | > 40 | < 50 | < 50 | > 40 | > 40 | > 40 | > 40 | > 40 | > 40 | > 40 | 200 | 200 | 200 |
| O=C1/C(=N\c2ccc(Oc3ccc(/N=C4\C(=O)N(Cc5ccccc5)c5ccccc54)cc3)cc2)c2ccccc2N1Cc1ccccc1 | < 50 | < 50 | > 16 | > 16 | > 16 | > 80 | > 80 | > 80 | < 50 | < 50 | > 80 | > 80 | > 80 | > 80 | > 80 | > 80 | > 80 | 80 | 400 | 80 |
| O=C1Nc2ccccc2/C1=N\c1ccc(Oc2cccc(/N=C3/C(=O)Nc4ccccc43)c2)cc1 | < 50 | < 50 | > 16 | > 16 | > 16 | > 80 | > 80 | > 80 | < 50 | < 50 | > 80 | > 80 | > 80 | > 80 | > 80 | > 80 | > 80 | ≥ 16 | 400 | 400 |
| Nc1nc2c(ncn2COC(CO)CO)c(=O)[nH]1 [GANCICLOVIR] |  |  |  |  |  |  |  |  |  |  |  |  | 12 (≈ 47 µM) | > 100 | > 100 | 4 (≈ 15.7 µM) | 0.48 (≈ 1.88 µM) |  | > 100 |  |
| O=C1Nc2ccc(F)cc2/C1=N\c1cccc(Cc2cccc(/N=C3/C(=O)Nc4ccc(F)cc43)c2)c1 | < 50 | < 50 | > 16 | > 16 | 9.6 (≈ 19.5 µM) | > 16 | > 16 | > 16 | < 50 | < 50 | > 16 | > 16 | > 16 | > 16 | > 16 | > 16 | > 16 | 80 | 80 | 80 |
| O=c1[nH]c(=O)n([C@H]2C[C@H](O)[C@@H](CO)O2)cc1/C=C/Br [BRIVUDINE] |  |  | > 500 | > 500 | > 500 | > 100 | > 100 | > 100 |  |  | > 100 | > 100 | 500 (≈ 1500 µM) | > 500 | 60 (≈ 180 µM) | > 500 | 0.16 (≈ 0.48 µM) | 500 | > 500 | 500 |
| Cc1c(/N=C2/C(=O)Nc3ccccc32)cccc1/N=C1/C(=O)Nc2ccccc21 | < 100 | < 100 | > 400 | > 400 | > 400 | > 80 | > 80 | > 80 | < 100 | < 100 | > 80 | > 80 | 16 (≈ 42.1 µM) | > 80 | > 80 | > 80 | > 80 | ≥ 400 | 400 | 400 |
| Nc1ncnc2c1ncn2C[C@H](O)CO [(S)-DHPA] |  |  | > 500 | > 500 | 500 (≈ 2390 µM) | > 100 |  | > 100 |  |  | 300 (≈ 1430 µM) | > 100 |  |  |  |  |  | > 500 |  | 500 |
| NC(=O)c1ncn([C@@H]2O[C@H](CO)[C@@H](O)[C@H]2O)n1 [RIBAVIRIN] |  |  | 60 (≈ 246 µM) | > 500 | 60 (≈ 246 µM) | > 500 | 60 (≈ 246 µM) | 300 (≈ 1230 µM) |  |  | 300 (≈ 1230 µM) | 300 (≈ 1230 µM) | > 500 | > 500 | 300 (≈ 1230 µM) | > 500 | 500 (≈ 2050 µM) | > 500 | > 500 | > 500 |
| CCc1ccc2c(c1)/C(=N/c1c(CC)cc(Cc3cc(CC)c(/N=C4\C(=O)N(CC)c5ccc(CC)cc54)c(CC)c3Cl)c(Cl)c1CC)C(=O)N2CC | < 50 | < 50 | > 3.2 | > 3.2 | > 3.2 | > 3.2 | > 3.2 | > 3.2 | < 50 | < 50 | > 3.2 | > 3.2 | > 16 | > 16 | > 16 | > 16 | > 16 | 16 | 80 | 16 |
| O=C1Nc2ccc(F)cc2/C1=N/c1ccc(Oc2ccc(/N=C3\C(=O)Nc4ccc(F)cc43)cc2)cc1 | < 50 | < 50 | > 16 | > 16 | > 16 | > 8 | > 8 | > 8 | < 50 | < 50 | > 8 | > 8 | > 1.6 | > 1.6 | > 1.6 | > 1.6 | > 1.6 | ≥ 16 | 8 | 40 |
| Nc1nc2c(ncn2COCCO)c(=O)[nH]1 [ACYCLOVIR] |  |  |  |  |  |  |  |  |  |  |  |  | 300 (≈ 1330 µM) | > 500 | > 500 | 20 (≈ 88.8 µM) | 2.4 (≈ 10.7 µM) |  | > 500 |  |
| O=C1Nc2ccccc2/C1=N\c1ccc(Cc2cccc(/N=C3/C(=O)Nc4ccccc43)c2)cc1 | < 50 | < 50 | > 16 | > 16 | 3.2 (≈ 7.01 µM) | > 16 | > 16 | > 16 | < 50 | < 50 | > 16 | > 16 | > 16 | > 16 | > 16 | > 16 | > 16 | ≥ 16 | 80 | 80 |
| O=C1Nc2ccc(F)cc2/C1=N/c1ccc(Cc2ccc(/N=C3\C(=O)Nc4ccc(F)cc43)cc2)cc1 | < 50 | < 50 | > 16 | > 16 | > 16 | > 16 | > 16 | > 16 | < 50 | < 50 | > 16 | > 16 | > 3.2 | > 3.2 | > 3.2 | > 3.2 | > 3.2 | 80 | 16 | ≥ 16 |
| O=C1/C(=N\c2ccc(Cc3ccc(/N=C4\C(=O)N(Cc5ccccc5)c5ccccc54)cc3)cc2)c2ccccc2N1Cc1ccccc1 | < 50 | < 50 | > 40 | > 40 | > 40 | > 8 | > 8 | > 8 | < 50 | < 50 | > 8 | > 8 | > 8 | > 8 | > 8 | > 8 | > 8 | 200 | 40 | 40 |
| O=C1Nc2ccccc2/C1=N\c1cccc(Cc2cccc(/N=C3/C(=O)Nc4ccccc43)c2)c1 | < 50 | < 50 | > 16 | > 16 | 9.6 (≈ 21 µM) | > 16 | > 16 | > 16 | < 50 | < 50 | > 16 | > 16 | > 16 | > 16 | > 16 | > 16 | > 16 | ≥ 16 | 80 | 80 |
| O=C1Nc2ccccc2/C1=N/c1ccc(C(=O)c2ccc(/N=C3\C(=O)Nc4ccccc43)cc2)cc1 | < 50 | < 50 | > 16 | > 16 | 48 (≈ 102 µM) | > 16 | > 16 | > 16 | < 50 | < 50 | > 16 | > 16 | > 16 | > 16 | > 16 | > 16 | > 16 | 80 | 80 | ≥ 16 |
